Reference: ChEMBL document CHEMBL3414511, “Synthesis of a novel class of substituted benzothiophene or benzofuran derivatives as BMP-2 up-regulators and evaluation of the BMP-2-up-regulating effects in vitro and the effects on glucocorticoid-induced osteoporosis in rats” (Eur J Med Chem, 2015)
Active and inactive are the calls of the source. No cut-off for these calls is given here.

What was measured:
Rattus norvegicus [1] = test: Toxicity in glucocorticoid-induced Wistar rat osteoporosis model assessed as effect on total bilirubin level at 30 mg/kg/day, po administered six times a week for 3 months; assay type: organism-based; parameters: route oral; details: in vivo
Rattus norvegicus [2] = test: Antiosteoporotic activity in glucocorticoid-induced Wistar rat osteoporosis model appearance of turbulent and sparse rarefection of trabecula at 30 mg/kg/day, po administered six times a week for 3 months by toluidine blue staining-based light microscopic analysis; assay type: functional, organism-based
Rattus norvegicus [3] = test: Toxicity in glucocorticoid-induced Wistar rat osteoporosis model assessed as effect on total protein level at 30 mg/kg/day, po administered six times a week for 3 months; assay type: organism-based; parameters: route oral; details: in vivo
Rattus norvegicus [4] = test: Toxicity in glucocorticoid-induced Wistar rat osteoporosis model assessed as alanine transaminase level at 30 mg/kg/day, po administered six times a week for 3 months (reference value: 43.73 +/- 36.21 U/L); assay type: organism-based; parameters: route oral; details: in vivo
Rattus norvegicus [5] = test: Toxicity in glucocorticoid-induced Wistar rat osteoporosis model assessed as lymph level at 30 mg/kg/day, po administered six times a week for 3 months (reference value: 50.35 +/- 12.96%); assay type: organism-based; parameters: route oral; details: in vivo
Rattus norvegicus [6] = test: Toxicity in glucocorticoid-induced Wistar rat osteoporosis model assessed as aspartate transaminase level at 30 mg/kg/day, po administered six times a week for 3 months (reference value: 177.55 +/- 116.98 U/L); assay type: organism-based; parameters: route oral; details: in vivo
Rattus norvegicus [7] = test: Toxicity in glucocorticoid-induced Wistar rat osteoporosis model assessed as effect on red blood cell specific volume at 30 mg/kg/day, po administered six times a week for 3 months; assay type: organism-based; parameters: route oral; details: in vivo
Rattus norvegicus [8] = test: Antiosteoporotic activity in glucocorticoid-induced Wistar rat osteoporosis model assessed as trabecula formation surface at 30 mg/kg/day, po administered six times a week for 3 months by fluorescence assay (reference value: 7.82 +/- 2.46%); assay type: functional
Rattus norvegicus [9] = test: Toxicity in glucocorticoid-induced Wistar rat osteoporosis model assessed as effect on mean corpuscular hemoglobin concentration at 30 mg/kg/day, po administered six times a week for 3 months; assay type: organism-based; parameters: route oral; details: in vivo
Rattus norvegicus [10] = test: Antiosteoporotic activity in glucocorticoid-induced Wistar rat osteoporosis model assessed as mineral apposition rate at 30 mg/kg/day, po administered six times a week for 3 months by fluorescence assay (reference value: 1.06 +/- 0.27 micrometer/day); assay type: functional
Rattus norvegicus [11] = test: Toxicity in glucocorticoid-induced Wistar rat osteoporosis model assessed as effect on red blood cells at 30 mg/kg/day, po administered six times a week for 3 months; assay type: organism-based; parameters: route oral; details: in vivo
Rattus norvegicus [12] = test: Toxicity in glucocorticoid-induced Wistar rat osteoporosis model assessed as effect on blood urea nitrogen level at 30 mg/kg/day, po administered six times a week for 3 months; assay type: organism-based; parameters: route oral; details: in vivo
Rattus norvegicus [13] = test: Toxicity in glucocorticoid-induced Wistar rat osteoporosis model assessed as effect on platelets at 30 mg/kg/day, po administered six times a week for 3 months; assay type: organism-based; parameters: route oral; details: in vivo
Rattus norvegicus [14] = test: Toxicity in glucocorticoid-induced Wistar rat osteoporosis model assessed as white blood cells at 30 mg/kg/day, po administered six times a week for 3 months (reference value: 6.28 +/- 2.78 x 10^9/L); assay type: organism-based; parameters: route oral; details: in vivo
Rattus norvegicus [15] = test: Toxicity in glucocorticoid-induced Wistar rat osteoporosis model assessed as effect on hemoglobin at 30 mg/kg/day, po administered six times a week for 3 months; assay type: organism-based; parameters: route oral; details: in vivo
Rattus norvegicus [16] = test: Toxicity in glucocorticoid-induced Wistar rat osteoporosis model assessed as triglycerides level at 30 mg/kg/day, po administered six times a week for 3 months (reference value: 1.13 +/- 0.69 mmol/L); assay type: organism-based; parameters: route oral; details: in vivo
[17] = Upregulation of BMP-2 expression in mouse MC3T3-E1 cells at 4 uM after 24 hrs by luciferase reporter gene assay relative to control; assay type: functional, cell-based
Rattus norvegicus [18] = test: Antiosteoporotic activity in glucocorticoid-induced Wistar rat osteoporosis model assessed as trabecular bone volume at 30 mg/kg/day, po administered six times a week for 3 months by fluorescence assay (reference value: 33.09 +/- 5.15%); assay type: functional, Trabecula
Rattus norvegicus [19] = test: Toxicity in glucocorticoid-induced Wistar rat osteoporosis model assessed as effect on mean corpuscular volume at 30 mg/kg/day, po administered six times a week for 3 months; assay type: organism-based; parameters: route oral; details: in vivo
Rattus norvegicus [20] = test: Toxicity in glucocorticoid-induced Wistar rat osteoporosis model assessed as effect on glucose level at 30 mg/kg/day, po administered six times a week for 3 months; assay type: organism-based; parameters: route oral; details: in vivo
Rattus norvegicus [21] = test: Antiosteoporotic activity in glucocorticoid-induced Wistar rat osteoporosis model assessed as trabecula resorption surface at 30 mg/kg/day, po administered six times a week for 3 months by fluorescence assay (reference value: 7.22 +/- 2.04%); assay type: functional
Rattus norvegicus [22] = test: Toxicity in glucocorticoid-induced Wistar rat osteoporosis model assessed as effect on creatinine level at 30 mg/kg/day, po administered six times a week for 3 months; assay type: organism-based; parameters: route oral; details: in vivo
Rattus norvegicus [23] = test: Toxicity in glucocorticoid-induced Wistar rat osteoporosis model assessed as effect on red blood cell distribution width at 30 mg/kg/day, po administered six times a week for 3 months; assay type: organism-based; parameters: route oral; details: in vivo
Rattus norvegicus [24] = test: Toxicity in glucocorticoid-induced Wistar rat osteoporosis model assessed as neutrophilic granulocytes level at 30 mg/kg/day, po administered six times a week for 3 months (reference value: 31.95 +/- 8.33%); assay type: organism-based; parameters: route oral; details: in vivo
Rattus norvegicus [25] = test: Toxicity in glucocorticoid-induced Wistar rat osteoporosis model assessed as effect on albumin level at 30 mg/kg/day, po administered six times a week for 3 months; assay type: organism-based; parameters: route oral; details: in vivo
[26] = Upregulation of BMP-2 expression in mouse MC3T3-E1 cells at 0.4 uM after 24 hrs by luciferase reporter gene assay relative to control; assay type: functional, cell-based

Structure (SMILES): CC(=O)c1cc2ccc(C(=O)O)cc2s1
- Activity (Rattus norvegicus [1]): Non-toxic
- Activity (Rattus norvegicus [2]): inactive
- Activity (Rattus norvegicus [3]): Non-toxic
- Activity (Rattus norvegicus [4]): 31.17 U/L
- Activity (Rattus norvegicus [5]): 35.72%
- Activity (Rattus norvegicus [6]): 123.33 U/L
- Activity (Rattus norvegicus [7]): Non-toxic
- Activity (Rattus norvegicus [8]): 4.61%
- Activity (Rattus norvegicus [9]): Non-toxic
- Activity (Rattus norvegicus [10]): 0.97 micrometer/day
- Activity (Rattus norvegicus [11]): Non-toxic
- Activity (Rattus norvegicus [12]): Non-toxic
- Activity (Rattus norvegicus [13]): Non-toxic
- Activity (Rattus norvegicus [14]): 3.55 ×10⁹ /L
- Activity (Rattus norvegicus [15]): Non-toxic
- Activity (Rattus norvegicus [16]): 0.53 mmol/L
- Activity [17]: 102%
- Activity (Rattus norvegicus [18]): 20.5%
- Activity (Rattus norvegicus [19]): Non-toxic
- Activity (Rattus norvegicus [20]): Non-toxic
- Activity (Rattus norvegicus [21]): 10.9%
- Activity (Rattus norvegicus [22]): Non-toxic
- Activity (Rattus norvegicus [23]): Non-toxic
- Activity (Rattus norvegicus [24]): 47.16%
- Activity (Rattus norvegicus [25]): Non-toxic

Structure (SMILES): CC[C@H](C)C(=O)O[C@H]1C[C@@H](C)C=C2C=C[C@H](C)[C@H](CC[C@@H]3C[C@@H](O)CC(=O)O3)[C@H]21
- Activity [26]: 20.9%
